# According to patent US20120029187A1, “HALOALKYLSULFONANILIDE DERIVATIVE” (Nissan Chemical Industries, Ltd., priority 2009, published 2012):
# Tests used:
# Assay type in all cases: in vivo
# barnyardgrass [1] = assay: Test Example 1: herbicidal effects in preemergence treatment under submerged conditions; settings: dose 2.52 g/a
# Method in brief: (§1)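 Alluvial soil was flooded to 4 cm, sown with barnyardgrass, bulrush and ducksalad, and planted with 2.5-leaf rice seedlings. On the seeding day, water-diluted emulsifiable concentrates were applied to the water surface at set doses (g/a). After three weeks in a 25 to 30° C. greenhouse, mortality was scored 0–5.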
# bulrush [2] = assay: as above; settings: dose 2.52 g/a
# Method in brief: as §1
# ducksalad [3] = assay: as above; settings: dose 2.52 g/a
# Method in brief: as §1
# transplanted rice = assay: Test Example 1: preemergence treatment under submerged conditions, effect on crop; settings: dose 2.52 g/a
# Method in brief: as §1
# barnyardgrass [4] = assay: Test Example 2: herbicidal effects during the vegetation period under submerged conditions; settings: treatment during the vegetation period under submerged conditions; dose 2.52 g/a
# Method in brief: (§2)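 Barnyardgrass, bulrush and ducksalad were co-sown in alluvial soil flooded to 4 cm and grown in a greenhouse at 25 to 30° C. At the 1- or 2-leaf stage, water-diluted emulsifiable concentrates went onto the water surface at set doses (g/a). Herbicidal effect was scored three weeks later on a graded scale.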
# bulrush [5] = assay: as above; settings: treatment during the vegetation period under submerged conditions; dose 2.52 g/a
# Method in brief: as §2
# ducksalad [6] = assay: as above; settings: treatment during the vegetation period under submerged conditions; dose 2.52 g/a
# Method in brief: as §2
# Italian ryegrass [7] = assay: Test Example 3: herbicidal effects in soil treatment; settings: dose 3.2 g/a
# Method in brief: (§3)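 Seeds were sown in sterilized diluvial soil and covered with about 1.5 cm of soil. Compounds, formulated as emulsifiable concentrates and diluted with water, were sprayed evenly over the soil surface at set doses in g/a. Herbicidal effect was scored on a rating scale three weeks later.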
# barnyardgrass [8] = assay: as above; settings: dose 3.2 g/a
# Method in brief: as §3
# beadstraw [9] = assay: as above; settings: dose 3.2 g/a
# Method in brief: as §3
# common chickweed [10] = assay: as above; settings: dose 3.2 g/a
# Method in brief: as §3
# common lambsquater [11] = assay: as above; settings: dose 3.2 g/a
# Method in brief: as §3
# common ragweed [12] = assay: as above; settings: dose 3.2 g/a
# Method in brief: as §3
# giant foxtail [13] = assay: as above; settings: dose 3.2 g/a
# Method in brief: as §3
# large crabgrass [14] = assay: as above; settings: dose 3.2 g/a
# Method in brief: as §3
# posumbu knotweed [15] = assay: as above; settings: dose 3.2 g/a
# Method in brief: as §3
# redroot pigweed [16] = assay: as above; settings: dose 3.2 g/a
# Method in brief: as §3
# velvetleaf [17] = assay: as above; settings: dose 3.2 g/a
# Method in brief: as §3
# water foxtail [18] = assay: as above; settings: dose 3.2 g/a
# Method in brief: as §3
# Italian ryegrass [19] = assay: Test Example 4: herbicidal effect in foliage treatment; settings: dose 3.2 g/a
# Method in brief: (§4)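 Weeds and crops sown in sterilized diluvial soil under ~1.5 cm cover and grown in greenhouse at 25 to 30° C. At 14 days, water-diluted emulsifiable concentrate sprayed onto foliage at set doses (g/a); herbicidal effect scored on a rating scale three weeks after application.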
# barnyardgrass [20] = assay: as above; settings: dose 3.2 g/a
# Method in brief: as §4
# beadstraw [21] = assay: as above; settings: dose 3.2 g/a
# Method in brief: as §4
# common chickweed [22] = assay: as above; settings: dose 3.2 g/a
# Method in brief: as §4
# common lambsquater [23] = assay: as above; settings: dose 3.2 g/a
# Method in brief: as §4
# common ragweed [24] = assay: as above; settings: dose 3.2 g/a
# Method in brief: as §4
# giant foxtail [25] = assay: as above; settings: dose 3.2 g/a
# Method in brief: as §4
# large crabgrass [26] = assay: as above; settings: dose 3.2 g/a
# Method in brief: as §4
# posumbu knotweed [27] = assay: as above; settings: dose 3.2 g/a
# Method in brief: as §4
# redroot pigweed [28] = assay: as above; settings: dose 3.2 g/a
# Method in brief: as §4
# velvetleaf [29] = assay: as above; settings: dose 3.2 g/a
# Method in brief: as §4
# water foxtail [30] = assay: as above; settings: dose 3.2 g/a
# Method in brief: as §4
# [31] = three weeks after the application
smiles,measurement,setting,value
CC1CON(Cc2ccccc2NS(=O)(=O)C(F)(F)F)C(=O)O1 (centres unmarked) [III-3],"A: barnyardgrass, herbicidal effect (evaluation scale 0-5)",barnyardgrass [1],4 (mortality of at least 70% and less than 90%)
same,"B: bulrush, herbicidal effect (evaluation scale 0-5)",bulrush [2],5 (mortality of 90% or above (nearly complete death))
same,"C: ducksalad, herbicidal effect (evaluation scale 0-5)",ducksalad [3],5 (mortality of 90% or above (nearly complete death))
same,"a: transplanted rice, effect on crop (evaluation scale 0-5)",transplanted rice,0 (mortality of less than 5% (almost ineffective))
same,"A: barnyardgrass, herbicidal effect (evaluation scale 0-5)",barnyardgrass [4],5 (mortality of 90% or above (nearly complete death))
same,"B: bulrush, herbicidal effect (evaluation scale 0-5)",bulrush [5],5 (mortality of 90% or above (nearly complete death))
same,"C: ducksalad, herbicidal effect (evaluation scale 0-5)",ducksalad [6],5 (mortality of 90% or above (nearly complete death))
same,"herbicidal effect, H: Italian ryegrass",Italian ryegrass [7],0 (mortality of less than 5% (almost ineffective))
same,"herbicidal effect, A: barnyardgrass",barnyardgrass [8],5 (mortality of 90% or above (nearly complete death))
same,"herbicidal effect, O: beadstraw",beadstraw [9],0 (mortality of less than 5% (almost ineffective))
same,"herbicidal effect, N: common chickweed",common chickweed [10],4 (mortality of at least 70% and less than 90%)
same,"herbicidal effect, L: common lambsquater",common lambsquater [11],0 (mortality of less than 5% (almost ineffective))
same,"herbicidal effect, J: common ragweed",common ragweed [12],5 (mortality of 90% or above (nearly complete death))
same,"herbicidal effect, E: giant foxtail",giant foxtail [13],5 (mortality of 90% or above (nearly complete death))
same,"herbicidal effect, D: large crabgrass",large crabgrass [14],5 (mortality of 90% or above (nearly complete death))
same,"herbicidal effect, M: posumbu knotweed",posumbu knotweed [15],5 (mortality of 90% or above (nearly complete death))
same,"herbicidal effect, K: redroot pigweed",redroot pigweed [16],0 (mortality of less than 5% (almost ineffective))
same,"herbicidal effect, I: velvetleaf",velvetleaf [17],1 (mortality of at least 5% and less than 20%)
same,"herbicidal effect, G: water foxtail",water foxtail [18],5 (mortality of 90% or above (nearly complete death))
same,"H: Italian ryegrass, herbicidal effect",Italian ryegrass [19]; [31],0 (mortality of less than 5% (almost ineffective))
same,"A: barnyardgrass, herbicidal effect",barnyardgrass [20]; [31],5 (mortality of 90% or above (nearly complete death))
same,"O: beadstraw, herbicidal effect",beadstraw [21]; [31],4 (mortality of at least 70% and less than 90%)
same,"N: common chickweed, herbicidal effect",common chickweed [22]; [31],4 (mortality of at least 70% and less than 90%)
same,"L: common lambsquater, herbicidal effect",common lambsquater [23]; [31],0 (mortality of less than 5% (almost ineffective))
same,"J: common ragweed, herbicidal effect",common ragweed [24]; [31],4 (mortality of at least 70% and less than 90%)
same,"E: giant foxtail, herbicidal effect",giant foxtail [25]; [31],4 (mortality of at least 70% and less than 90%)
same,"D: large crabgrass, herbicidal effect",large crabgrass [26]; [31],4 (mortality of at least 70% and less than 90%)
same,"M: posumbu knotweed, herbicidal effect",posumbu knotweed [27]; [31],2 (mortality of at least 20% and less than 40%)
same,"K: redroot pigweed, herbicidal effect",redroot pigweed [28]; [31],0 (mortality of less than 5% (almost ineffective))
same,"I: velvetleaf, herbicidal effect",velvetleaf [29]; [31],2 (mortality of at least 20% and less than 40%)
same,"G: water foxtail, herbicidal effect",water foxtail [30]; [31],5 (mortality of 90% or above (nearly complete death))
COCC1(C)CC(=O)N(Cc2ccccc2N(C(=O)OCC(C)C)S(=O)(=O)C(F)(F)F)CO1 (centres unmarked) [II-56],"A: barnyardgrass, herbicidal effect (evaluation scale 0-5)",barnyardgrass [1],5 (mortality of 90% or above (nearly complete death))
same,"B: bulrush, herbicidal effect (evaluation scale 0-5)",bulrush [2],5 (mortality of 90% or above (nearly complete death))
same,"C: ducksalad, herbicidal effect (evaluation scale 0-5)",ducksalad [3],5 (mortality of 90% or above (nearly complete death))
same,"a: transplanted rice, effect on crop (evaluation scale 0-5)",transplanted rice,0 (mortality of less than 5% (almost ineffective))
same,"A: barnyardgrass, herbicidal effect (evaluation scale 0-5)",barnyardgrass [4],5 (mortality of 90% or above (nearly complete death))
same,"B: bulrush, herbicidal effect (evaluation scale 0-5)",bulrush [5],5 (mortality of 90% or above (nearly complete death))
same,"C: ducksalad, herbicidal effect (evaluation scale 0-5)",ducksalad [6],5 (mortality of 90% or above (nearly complete death))
same,"H: Italian ryegrass, herbicidal effect (evaluation scale 0-5)",Italian ryegrass [7],5 (mortality of 90% or above (nearly complete death))
same,"A: barnyardgrass, herbicidal effect (evaluation scale 0-5)",barnyardgrass [8],5 (mortality of 90% or above (nearly complete death))
same,"O: beadstraw, herbicidal effect (evaluation scale 0-5)",beadstraw [9],0 (mortality of less than 5% (almost ineffective))
same,"N: common chickweed, herbicidal effect (evaluation scale 0-5)",common chickweed [10],5 (mortality of 90% or above (nearly complete death))
same,"L: common lambsquater, herbicidal effect (evaluation scale 0-5)",common lambsquater [11],3 (mortality of at least 40% and less than 70%)
same,"J: common ragweed, herbicidal effect (evaluation scale 0-5)",common ragweed [12],4 (mortality of at least 70% and less than 90%)
same,"E: giant foxtail, herbicidal effect (evaluation scale 0-5)",giant foxtail [13],5 (mortality of 90% or above (nearly complete death))
same,"D: large crabgrass, herbicidal effect (evaluation scale 0-5)",large crabgrass [14],4 (mortality of at least 70% and less than 90%)
same,"M: posumbu knotweed, herbicidal effect (evaluation scale 0-5)",posumbu knotweed [15],3 (mortality of at least 40% and less than 70%)
same,"K: redroot pigweed, herbicidal effect (evaluation scale 0-5)",redroot pigweed [16],2 (mortality of at least 20% and less than 40%)
same,"I: velvetleaf, herbicidal effect (evaluation scale 0-5)",velvetleaf [17],5 (mortality of 90% or above (nearly complete death))
same,"G: water foxtail, herbicidal effect (evaluation scale 0-5)",water foxtail [18],5 (mortality of 90% or above (nearly complete death))
same,"H: Italian ryegrass, herbicidal effect",Italian ryegrass [19]; three weeks after application,3 (mortality of at least 40% and less than 70%)
same,"A: barnyardgrass, herbicidal effect",barnyardgrass [20]; three weeks after application,5 (mortality of 90% or above (nearly complete death))
same,"O: beadstraw, herbicidal effect",beadstraw [21]; three weeks after application,3 (mortality of at least 40% and less than 70%)
same,"N: common chickweed, herbicidal effect",common chickweed [22]; three weeks after application,4 (mortality of at least 70% and less than 90%)
same,"L: common lambsquater, herbicidal effect",common lambsquater [23]; three weeks after application,3 (mortality of at least 40% and less than 70%)
same,"J: common ragweed, herbicidal effect",common ragweed [24]; three weeks after application,4 (mortality of at least 70% and less than 90%)
same,"E: giant foxtail, herbicidal effect",giant foxtail [25]; three weeks after application,4 (mortality of at least 70% and less than 90%)
same,"D: large crabgrass, herbicidal effect",large crabgrass [26]; three weeks after application,0 (mortality of less than 5% (almost ineffective))
same,"M: posumbu knotweed, herbicidal effect",posumbu knotweed [27]; three weeks after application,0 (mortality of less than 5% (almost ineffective))
same,"K: redroot pigweed, herbicidal effect",redroot pigweed [28]; three weeks after application,2 (mortality of at least 20% and less than 40%)
same,"I: velvetleaf, herbicidal effect",velvetleaf [29]; three weeks after application,5 (mortality of 90% or above (nearly complete death))
same,"G: water foxtail, herbicidal effect",water foxtail [30]; three weeks after application,5 (mortality of 90% or above (nearly complete death))
